# Experimental data from the NIST ThermoML archive (doi:10.1016/j.tca.2013.03.013).
# ± gives the expanded uncertainty stated by the source.
# Conditions: Crystal
compound,measurement,setting,value
CC1(C)O[C@@H]2C[C@H]3[C@@H]4C[C@H](F)C5=CC(=O)C=C[C@]5(C)[C@@]4(F)[C@@H](O)C[C@]3(C)[C@]2(C(=O)CO)O1 [fluocinolone acetonide],Normal melting temperature,DTA,261.4 ± 0.7 °C
same,Normal melting temperature,visual observation,262.00 ± 0.5 °C
